The values that follow are results of earlier work, collected in patent US10881700B1, “Compositions including extracts of gray mangrove leaves and methods of treatment using such compositions in treatment of viral infections” (KING ABDULLAH UNIVERSITY OF SCIENCE AND TECHNOLOGY, priority 2016, dated 2021).

Data set [1] addresses HIV-1 integrase (Human immunodeficiency virus type 1 group M subtype B, UniProt P04585). The following applies: reference [24].
Data set [2] concerns HIV-1 reactivation. The following applies: reference [26].

Regarding `COC(=O)C=Cc1ccccc1` [Methyl cinnamate], the “activity against HIV-1 integrase” value in data set [1] is “not demonstrated activity”.
Consider `COc1ccccc1O` [gluaiacol, 2-Methoxy phenol], for which the “blocking HIV-1 reactivation in cases of virus latency” value in data set [2] is recorded as “efficient in blocking HIV-1 reactivation”.
